Measured values as given in patent US8158558B2, “Herbicide combinations comprising specific sulfonylureas” (Bayer CropScience GmbH, priority 2001, dated 2012).
Where two headings read alike, the source gives them in different places.

What was measured:
Type in all cases: in vivo
[1] = test system: Veronica hederifolia; assay: Herbicidal action (outdoor trials), post-emergence, Veronica hederifolia; settings: visual score approx. 4-6 weeks after application, mean of 4 plots
Protocol: (§1) Herbicidal Action (Outdoor Trials)
(§2) The seeds or rhizome pieces of typical harmful plants were planted and grown under natural outdoor conditions. After the harmful plants had emerged, they were treated, as a rule at the 2- to 4-leaf stage, with various dosages of the compositions according to the invention at a water application rate of 100 to 400 I/ha (converted).
(§3) After the treatment (approx. 4-6 weeks after application), the herbidical activity of the active compounds or active compound mixtures was scored visually by comparing the treated plots with the untreated control plots. Damage and development of all above-ground parts of the plants was recorded. Scoring was done on a percentage scale (100% action=all plants dead; 50% action=50% of the plants and green plant parts dead; 0% action=no discernible action=like control plot). The score figures of in each case 4 plots were averaged.
(§4) The results are listed in the tables below, where the activity measured for the independent use of the active compounds (A) and (B) is stated in brackets and where g of AS/ha denotes grams of active substance per hectare.

[2] = test system: Wheat
Protocol: as §1, §2, §3, §4

[3] = test system: Setaria viridis; assay: Herbicidal action (outdoor trials), post-emergence, Setaria viridis; settings: read-out: Setaria viridis % activity
Protocol: as §1, §2, §3, §4

COc1ncc(F)c2nc(S(=O)(=O)Nc3c(F)cccc3F)nn12 [florasulam (B3), 2′,6′,8′-trifluoro-5-methoxy[1,2,4]triazolo[1,5-c]pyrimidine-2-sulfanilide] was tested, and the “Veronica hederifolia % damage” value ([1]; 4 g of AS/ha) was 60% and the Wheat % activity ([2]; 4 g of AS/ha, outdoor, visual score approx. 4-6 weeks after application, mean of 4 plots) was 0%.
With CCOC(=O)/C(Cl)=C/c1cc(N2C(=O)C3=C(CCCC3)C2=O)ccc1Cl [cinidon-ethyl (B7), ethyl (Z)-2-chloro-3-[2-chloro-5-(1,2-cyclohex-1-enedicarboximido)phenyl]acrylate] the “Veronica hederifolia % damage” value ([1]; 25 g of AS/ha) was 35%, the “Veronica hederifolia % activity” value ([1]; 50 g of AS/ha) was 25% and the Wheat % activity ([2]; 25 g of AS/ha, outdoor, visual score approx. 4-6 weeks after application, mean of 4 plots) was 0%. The Wheat % damage ([2]; 50 g of AS/ha, outdoor, visual score approx. 4-6 weeks after application, mean of 4 plots) was 5%.
COc1nn(C(=O)NS(=O)(=O)c2ccccc2OC(F)(F)F)c(=O)n1C.[Na] [flucarbazone (B1), 4,5-dihydro-3-methoxy-4-methyl-5-oxo-N-(2-trifluoromethoxyphenylsulfonyl)-1H-1,2,4-triazole-1-carboxamide sodium salt] gave a Wheat % damage ([2]; 10 g of AS/ha, outdoor, visual score approx. 4-6 weeks after application, mean of 4 plots) of 5% and an inhibition at 10 g/ha [3] of 40%.
O=C(Nc1ccc(F)cc1)c1cccc(Oc2cccc(C(F)(F)F)c2)n1 [picolinafen (B6), 4′-fluoro-6-[(α,α,α-trifluoro-m-tolyl)oxy]picolinanilide] was tested, and the “Veronica hederifolia % damage” value ([1]; 5 g of AS/ha) was 55%, the inhibition at 30 g/ha ([1]; Veronica hederifolia, 30 g of AS/ha) was 65% and the Wheat % activity ([2]; in vivo) was 0%. For the same compound, the Wheat % damage ([2]; in vivo) was 0%.
